# Strand notation (5' to 3'): a small letter for the sugar, then the base; units joined by * are phosphorothioate-linked, units joined directly phosphodiester-linked; [ ] holds rarer units or linkages, { } end groups; capitals alone tell only the bases. k = constrained ethyl (cEt); [5mC] = 5-methylcytosine; d = 2'-deoxy (DNA)
# Test system: human SMAD7 mRNA
# Experiment: Antisense inhibition of human SMAD7 mRNA expression in Hep3B cells by 3-10-3 cEt gapmers, 10,000 nM, electroporation (Example 2)
# Assay type: cell-based
# Details: SMAD7 mRNA, Hep3B cells, electroporation with 10,000 nM antisense oligonucleotide, approximately 24 hours, primer probe set RTS5062, relative to untreated control cells
# Summary of the method: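 SMAD7 mRNA was measured by real-time PCR (RTS5062) with RiboGreen total-RNA normalization, about 24 h after 10,000 nM gapmer was delivered by electroporation into Hep3B cells at 20,000 per well. Gapmers were 16-mer 3-10-3 cEt, fully phosphorothioate; values are % inhibition versus untreated controls.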
row,Substance,% Inhibition
1,829860 (antisense kG*kT*k[5mC]*dA*dG*d[5mC]*dT*dG*dG*dA*dT*dG*d[5mC]*k[5mC]*kG*k[5mC]) [compound 829860],31%
2,829861 (antisense k[5mC]*k[5mC]*kA*dT*d[5mC]*d[5mC]*dA*d[5mC]*d[5mC]*dT*d[5mC]*d[5mC]*d[5mC]*kG*k[5mC]*kG) [compound 829861],35%
3,829862 (antisense k[5mC]*kT*kG*d[5mC]*dT*dG*d[5mC]*dG*dG*dT*dT*dG*dT*kA*k[5mC]*kA) [compound 829862],22%
4,829863 (antisense kA*k[5mC]*kT*dG*d[5mC]*dT*dG*d[5mC]*dG*dG*dT*dT*dG*kT*kA*k[5mC]) [compound 829863],31%
5,829865 (antisense kG*kG*k[5mC]*dG*dG*dA*d[5mC]*dT*dT*dG*dA*dT*dG*kA*kA*kG) [compound 829865],30%
6,829866 (antisense kG*kT*kG*dG*d[5mC]*dG*dG*dA*d[5mC]*dT*dT*dG*dA*kT*kG*kA) [compound 829866],10%
7,829867 (antisense kT*kG*kT*dG*dG*d[5mC]*dG*dG*dA*d[5mC]*dT*dT*dG*kA*kT*kG) [compound 829867],22%
8,829868 (antisense kA*kG*kT*dG*dT*dG*dG*d[5mC]*dG*dG*dA*d[5mC]*dT*kT*kG*kA) [compound 829868],52%
9,829869 (antisense k[5mC]*kA*kG*dT*dG*dT*dG*dG*d[5mC]*dG*dG*dA*d[5mC]*kT*kT*kG) [compound 829869],37%
10,829870 (antisense k[5mC]*k[5mC]*kA*dG*dT*dG*dT*dG*dG*d[5mC]*dG*dG*dA*k[5mC]*kT*kT) [compound 829870],19%
11,829871 (antisense kG*kT*k[5mC]*d[5mC]*dA*dG*dT*dG*dT*dG*dG*d[5mC]*dG*kG*kA*k[5mC]) [compound 829871],1%
12,829872 (antisense kT*kG*kT*d[5mC]*d[5mC]*dA*dG*dT*dG*dT*dG*dG*d[5mC]*kG*kG*kA) [compound 829872],50%
13,829873 (antisense kT*kT*kG*dT*d[5mC]*d[5mC]*dA*dG*dT*dG*dT*dG*dG*k[5mC]*kG*kG) [compound 829873],52%
14,829874 (antisense kG*kT*kT*dG*dT*d[5mC]*d[5mC]*dA*dG*dT*dG*dT*dG*kG*k[5mC]*kG) [compound 829874],43%
15,829875 (antisense k[5mC]*kG*kG*dG*dT*dT*dG*dT*d[5mC]*d[5mC]*dA*dG*dT*kG*kT*kG) [compound 829875],52%
16,829876 (antisense k[5mC]*k[5mC]*kG*dG*dG*dT*dT*dG*dT*d[5mC]*d[5mC]*dA*dG*kT*kG*kT) [compound 829876],30%
17,829877 (antisense kT*k[5mC]*k[5mC]*dG*dG*dG*dT*dT*dG*dT*d[5mC]*d[5mC]*dA*kG*kT*kG) [compound 829877],42%
18,829878 (antisense kG*kA*kG*dT*d[5mC]*d[5mC]*dG*dG*dG*dT*dT*dG*dT*k[5mC]*k[5mC]*kA) [compound 829878],18%
19,829879 (antisense kT*kG*kG*dA*dG*dT*d[5mC]*d[5mC]*dG*dG*dG*dT*dT*kG*kT*k[5mC]) [compound 829879],29%

row,Substance,% Inhibition
1,829880 (antisense kT*k[5mC]*k[5mC]*dT*dG*dG*dA*dG*dT*d[5mC]*d[5mC]*dG*dG*kG*kT*kT) [compound 829880],32%
2,829881 (antisense k[5mC]*kG*kT*d[5mC]*d[5mC]*dT*dG*dG*dA*dG*dT*d[5mC]*d[5mC]*kG*kG*kG) [compound 829881],39%
3,829882 (antisense kA*kG*kG*d[5mC]*dT*dG*dT*dA*d[5mC]*dG*d[5mC]*d[5mC]*dT*kT*k[5mC]*kT) [compound 829882],3%
4,829883 (antisense k[5mC]*kA*kG*dG*d[5mC]*dT*dG*dT*dA*d[5mC]*dG*d[5mC]*d[5mC]*kT*kT*k[5mC]) [compound 829883],0%
5,829884 (antisense kT*kG*k[5mC]*dA*dG*dG*d[5mC]*dT*dG*dT*dA*d[5mC]*dG*k[5mC]*k[5mC]*kT) [compound 829884],24%
6,829885 (antisense k[5mC]*k[5mC]*kG*d[5mC]*dT*dG*d[5mC]*dA*dG*dG*d[5mC]*dT*dG*kT*kA*k[5mC]) [compound 829885],31%
7,829886 (antisense kG*kT*kG*dG*dT*d[5mC]*dA*dT*dT*dG*dG*dG*d[5mC]*k[5mC]*kG*k[5mC]) [compound 829886],6%
8,829887 (antisense k[5mC]*kG*kT*dG*dG*dT*d[5mC]*dA*dT*dT*dG*dG*dG*k[5mC]*k[5mC]*kG) [compound 829887],47%
9,829888 (antisense kG*kT*k[5mC]*d[5mC]*dA*d[5mC]*dG*dG*d[5mC]*dT*dG*d[5mC]*dT*kG*k[5mC]*kA) [compound 829888],47%
10,829889 (antisense k[5mC]*kG*kT*d[5mC]*d[5mC]*dA*d[5mC]*dG*dG*d[5mC]*dT*dG*d[5mC]*kT*kG*k[5mC]) [compound 829889],48%
11,829890 (antisense kA*kA*kG*d[5mC]*d[5mC]*d[5mC]*dG*dT*d[5mC]*d[5mC]*dA*d[5mC]*dG*kG*k[5mC]*kT) [compound 829890],0%
12,829891 (antisense kA*kT*k[5mC]*dT*dG*d[5mC]*dA*d[5mC]*dG*dG*dT*dA*dA*kA*kG*k[5mC]) [compound 829891],25%
13,829892 (antisense kG*kA*kT*d[5mC]*dT*dG*d[5mC]*dA*d[5mC]*dG*dG*dT*dA*kA*kA*kG) [compound 829892],32%
14,829893 (antisense kT*kG*kA*dT*d[5mC]*dT*dG*d[5mC]*dA*d[5mC]*dG*dG*dT*kA*kA*kA) [compound 829893],14%
15,829894 (antisense kG*k[5mC]*kT*dG*dA*dT*d[5mC]*dT*dG*d[5mC]*dA*d[5mC]*dG*kG*kT*kA) [compound 829894],41%
16,829895 (antisense kT*k[5mC]*kA*d[5mC]*dA*dA*dA*dG*d[5mC]*dT*dG*dA*dT*k[5mC]*kT*kG) [compound 829895],37%
17,829896 (antisense k[5mC]*kG*kG*dG*dT*dG*dT*dA*dG*d[5mC]*dA*d[5mC]*dT*kG*kG*k[5mC]) [compound 829896],44%
18,829897 (antisense kG*k[5mC]*kG*dG*dG*dT*dG*dT*dA*dG*d[5mC]*dA*d[5mC]*kT*kG*kG) [compound 829897],40%
19,829898 (antisense kT*kG*kG*d[5mC]*dG*dG*dG*dT*dG*dT*dA*dG*d[5mC]*kA*k[5mC]*kT) [compound 829898],31%

# Source: US10517889B2, “Modulators of SMAD7 expression” (Ionis Pharmaceuticals, Inc., priority 2017, dated 2019)
